Data set [1] is described as follows: Physical stability of peptide analogues (Thioflavin T fibrillation). It is filed as physicochemical. As to conditions: maximum ThT signal normalized between hAMY maximum and buffer background; 40° C., shaking, four days; pH 7 per table title. In outline: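 Peptides in 50 mM sodium acetate pH 4 or 50 mM sodium phosphate pH 7 were preincubated 1 h, mixed with 4 μM ThT, held at 40° C with 700 rpm shaking before each read. Fluorescence (ex 450/em 480 nm) every 10 min for four days; LOESS-smoothed maximum signal normalized in percent between hAMY and buffer.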

For the next data set, the target named is T1, hAMY3 receptor (Homo sapiens, UniProt O60896+P30988).
T1 sequence (P30988 25-474): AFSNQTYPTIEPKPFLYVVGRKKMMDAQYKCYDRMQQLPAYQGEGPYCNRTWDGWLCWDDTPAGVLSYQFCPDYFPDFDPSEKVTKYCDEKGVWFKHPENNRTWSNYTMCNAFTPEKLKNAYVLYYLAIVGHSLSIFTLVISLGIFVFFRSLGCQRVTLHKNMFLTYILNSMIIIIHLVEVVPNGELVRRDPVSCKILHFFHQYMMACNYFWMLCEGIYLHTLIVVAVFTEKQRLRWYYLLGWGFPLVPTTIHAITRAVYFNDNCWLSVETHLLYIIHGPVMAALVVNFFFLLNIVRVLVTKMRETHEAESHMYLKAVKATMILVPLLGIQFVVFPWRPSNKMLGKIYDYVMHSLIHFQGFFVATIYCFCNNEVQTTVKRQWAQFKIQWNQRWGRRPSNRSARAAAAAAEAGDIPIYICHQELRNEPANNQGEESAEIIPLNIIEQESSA
T1 sequence (O60896 24-148 partner): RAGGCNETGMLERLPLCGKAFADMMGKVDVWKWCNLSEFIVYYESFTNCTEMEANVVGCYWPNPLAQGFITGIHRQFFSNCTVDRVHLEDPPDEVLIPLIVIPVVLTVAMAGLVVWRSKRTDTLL
The data set can be described thus: cAMP assay for in vitro receptor activation, hAMY3-R. It is filed as cell-based. The note with it: cAMP assay, hAMY3 receptor; read-out: hAMY3R EC50. In outline: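 Read-out is TR-FRET cAMP signal, recorded one hour after reagent addition, following 30 min room-temperature stimulation of stable hAMY3 cells with graded compound doses in casein/IBMX (0.5 mM) buffer.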

Structures are written as SMILES. Bridge positions count the residues as written; N and C are the ends. Square brackets hold non-standard residues; d marks the D form. Peptide text beside a SMILES is read from it. Hyp = O=C(O)[C@@H]1C[C@@H](O)CN1; Cit = NC(=O)NCCC[C@H](N)C(=O)O

Take `CC[C@H](C)[C@H](NC(=O)[C@H](CCC(N)=O)NC(=O)[C@H](Cc1c[nH]cn1)NC(=O)[C@H](C)NC(=O)[C@H](CC(C)C)NC(=O)[C@H](CCCNC(=N)N)NC(=O)[C@H](CCC(N)=O)NC(=O)[C@@H](NC(=O)[C@@H](NC(=O)[C@@H]1CSSC[C@H](NC(=O)CN)C(=O)N[C@@H](CCCNC(=N)N)C(=O)N[C@@H]([C@@H](C)O)C(=O)NCC(=O)N[C@@H]([C@@H](C)O)C(=O)N1)[C@@H](C)O)C(C)C)C(=O)N[C@@H](Cc1ccc(O)cc1)C(=O)N[C@@H](CCC(N)=O)C(=O)N[C@@H](Cc1ccccc1)C(=O)N[C@H](C(=O)N[C@@H](CC(=O)O)C(=O)N[C@@H](CCCCN)C(=O)N[C@@H](CC(=O)O)C(=O)N[C@@H](CCCCN)C(=O)N[C@@H](CC(=O)O)C(=O)N[C@@H](CC(N)=O)C(=O)N[C@H](C(=O)N[C@@H](C)C(=O)N1CCC[C@H]1C(=O)N[C@@H](CCCNC(=N)N)C(=O)N[C@H](C(=O)N[C@@H](CC(N)=O)C(=O)N[C@H](C(=O)N[C@@H](CO)C(=O)N1CCC[C@H]1C(=O)N[C@@H](CC(N)=O)C(=O)NCC(=O)N1C[C@H](O)C[C@H]1C(N)=O)[C@@H](C)CC)[C@@H](C)O)C(C)C)[C@@H](C)O` [compound 170] (H-GCRTGTCTVQRLAHQIYQFTDKDKDNVAPRTNISPNG[Hyp]-NH2; disulfide 2-7): the “Max ThT signal (%)” value in data set [1] is 1.800%. The EC50 at hAMY3 receptor is 0.064 nM.
In the case of `CC[C@H](C)[C@H](NC(=O)[C@H](CCC(N)=O)NC(=O)[C@H](Cc1c[nH]cn1)NC(=O)[C@H](C)NC(=O)[C@H](CC(C)C)NC(=O)[C@H](CCCNC(=N)N)NC(=O)[C@H](CCC(N)=O)NC(=O)[C@@H](NC(=O)[C@@H](NC(=O)[C@@H]1CSSC[C@H](NC(=O)CN)C(=O)N[C@@H](CCCNC(=N)N)C(=O)N[C@@H](Cc2ccccc2)C(=O)NCC(=O)N[C@@H]([C@@H](C)O)C(=O)N1)[C@@H](C)O)C(C)C)C(=O)N[C@@H](Cc1ccc(O)cc1)C(=O)N[C@@H](CCC(N)=O)C(=O)N[C@@H](Cc1ccccc1)C(=O)N[C@H](C(=O)N[C@@H](CC(=O)O)C(=O)N[C@@H](CCCCN)C(=O)N[C@@H](CC(=O)O)C(=O)N[C@@H](CCCCN)C(=O)N[C@@H](CC(=O)O)C(=O)N[C@@H](CC(N)=O)C(=O)N[C@H](C(=O)N[C@@H](C)C(=O)N1CCC[C@H]1C(=O)N[C@@H](CCCNC(=N)N)C(=O)N[C@H](C(=O)N[C@@H](CCCCN)C(=O)N[C@H](C(=O)N[C@@H](CO)C(=O)N1CCC[C@H]1C(=O)N[C@@H](CCC(N)=O)C(=O)NCC(=O)N1C[C@H](O)C[C@H]1C(N)=O)[C@@H](C)CC)[C@@H](C)O)C(C)C)[C@@H](C)O` [compound 146] (H-GCRFGTCTVQRLAHQIYQFTDKDKDNVAPRTKISPQG[Hyp]-NH2; disulfide 2-7; N-terminus assumed), the “Max ThT signal (%)” value in data set [1] is on record as 3.600%. Also, the half-maximal effective concentration (EC50) at hAMY3 receptor was 0.04 nM.
The corresponding values for `CC[C@H](C)[C@H](NC(=O)[C@H](CCCCN)NC(=O)[C@@H](NC(=O)[C@H](CCCNC(=N)N)NC(=O)[C@@H]1CCCN1C(=O)[C@H](C)NC(=O)[C@@H](NC(=O)[C@H](CC(N)=O)NC(=O)[C@H](CC(=O)O)NC(=O)[C@H](CCCCN)NC(=O)[C@H](CC(=O)O)NC(=O)[C@H](CCCCN)NC(=O)[C@H](CC(=O)O)NC(=O)[C@@H](NC(=O)[C@H](Cc1ccccc1)NC(=O)[C@H](CCC(N)=O)NC(=O)[C@H](Cc1ccc(O)cc1)NC(=O)[C@@H](NC(=O)[C@H](CCC(N)=O)NC(=O)[C@H](Cc1c[nH]cn1)NC(=O)[C@H](C)NC(=O)[C@H](CC(C)C)NC(=O)[C@H](Cc1c[nH]c2ccccc12)NC(=O)[C@H](CCC(N)=O)NC(=O)[C@@H](NC(=O)[C@@H](NC(=O)[C@@H]1CSSC[C@H](NC(=O)CN)C(=O)N[C@@H](CCCNC(=N)N)C(=O)N[C@@H](Cc2ccccc2)C(=O)NCC(=O)N[C@@H]([C@@H](C)O)C(=O)N1)[C@@H](C)O)C(C)C)[C@@H](C)CC)[C@@H](C)O)C(C)C)[C@@H](C)O)C(=O)NCC(=O)N1CCC[C@H]1C(=O)N[C@@H](CCC(N)=O)C(=O)NCC(=O)N1C[C@H](O)C[C@H]1C(N)=O` [compound 336] (H-GCRFGTCTVQWLAHQIYQFTDKDKDNVAPRTKIGPQG[Hyp]-NH2; disulfide 2-7; N-terminus assumed) are 18.700% and 0.029 nM.
Take `CC[C@H](C)[C@H](NC(=O)[C@H](CCC(N)=O)NC(=O)[C@H](Cc1c[nH]cn1)NC(=O)[C@H](C)NC(=O)[C@H](CC(C)C)NC(=O)[C@H](CCCNC(N)=O)NC(=O)[C@H](CCC(N)=O)NC(=O)[C@@H](NC(=O)[C@@H](NC(=O)[C@@H]1CSSC[C@H](NC(=O)CN)C(=O)N[C@@H](CCCNC(=N)N)C(=O)N[C@@H](Cc2ccccc2)C(=O)NCC(=O)N[C@@H]([C@@H](C)O)C(=O)N1)[C@@H](C)O)C(C)C)C(=O)N[C@@H](Cc1ccc(O)cc1)C(=O)N[C@@H](CCC(N)=O)C(=O)N[C@@H](Cc1ccccc1)C(=O)N[C@H](C(=O)N[C@@H](CC(=O)O)C(=O)N[C@@H](CCCCN)C(=O)N[C@@H](CC(=O)O)C(=O)N[C@@H](CCCCN)C(=O)N[C@@H](CC(=O)O)C(=O)N[C@@H](CC(N)=O)C(=O)N[C@H](C(=O)N[C@@H](C)C(=O)N1CCC[C@H]1C(=O)N[C@@H](CCCNC(=N)N)C(=O)N[C@H](C(=O)N[C@@H](CC(N)=O)C(=O)N[C@H](C(=O)N[C@@H](CO)C(=O)N1CCC[C@H]1C(=O)N[C@@H](CCC(N)=O)C(=O)NCC(=O)N[C@@H](Cc1ccc(O)cc1)C(N)=O)C(C)C)[C@@H](C)O)C(C)C)[C@@H](C)O` [compound 278] (H-GCRFGTCTVQ[Cit]LAHQIYQFTDKDKDNVAPRTNVSPQGY-NH2; disulfide 2-7; N-terminus assumed): the “Max ThT signal (%)” value in data set [1] turned out to be 13.350%. On hAMY3 receptor, the EC50 came out at 0.011 nM.
In the case of `CC[C@H](C)[C@H](NC(=O)[C@H](CCC(N)=O)NC(=O)[C@H](Cc1c[nH]cn1)NC(=O)[C@H](C)NC(=O)[C@H](CC(C)C)NC(=O)[C@H](CCCNC(N)=O)NC(=O)[C@H](CCC(N)=O)NC(=O)[C@@H](NC(=O)[C@@H](NC(=O)[C@@H]1CSSC[C@H](NC(=O)CN)C(=O)N[C@@H](CCCNC(=N)N)C(=O)N[C@@H](Cc2ccccc2)C(=O)NCC(=O)N[C@@H]([C@@H](C)O)C(=O)N1)[C@@H](C)O)C(C)C)C(=O)N[C@@H](Cc1ccc(O)cc1)C(=O)N[C@@H](CCC(N)=O)C(=O)N[C@@H](Cc1ccccc1)C(=O)N[C@H](C(=O)N[C@@H](CC(=O)O)C(=O)N[C@@H](CCCCN)C(=O)N[C@@H](CC(=O)O)C(=O)N[C@@H](CCCCN)C(=O)N[C@@H](CC(=O)O)C(=O)N[C@@H](CC(N)=O)C(=O)N[C@H](C(=O)N[C@@H](C)C(=O)N1CCC[C@H]1C(=O)N[C@@H](CCCNC(=N)N)C(=O)N[C@H](C(=O)N[C@@H](CCCCN)C(=O)N[C@H](C(=O)NCC(=O)N1CCC[C@H]1C(=O)N[C@@H](CCC(N)=O)C(=O)NCC(=O)N1C[C@H](O)C[C@H]1C(N)=O)C(C)C)[C@@H](C)O)C(C)C)[C@@H](C)O` [compound 259] (H-GCRFGTCTVQ[Cit]LAHQIYQFTDKDKDNVAPRTKVGPQG[Hyp]-NH2; disulfide 2-7), in data set [1], the “Max ThT signal (%)” value was determined as 13.450%. In addition, the EC50 at hAMY3 receptor was found to be 0.013 nM.
For `CC[C@H](C)[C@H](NC(=O)[C@H](CC(N)=O)NC(=O)[C@@H](NC(=O)[C@H](CCCNC(=N)N)NC(=O)[C@@H]1CCCN1C(=O)[C@H](C)NC(=O)[C@@H](NC(=O)[C@H](CC(N)=O)NC(=O)[C@H](CC(=O)O)NC(=O)[C@H](CCCCN)NC(=O)[C@H](CC(=O)O)NC(=O)[C@H](CCCCN)NC(=O)[C@H](CC(=O)O)NC(=O)[C@@H](NC(=O)[C@H](Cc1ccccc1)NC(=O)[C@H](CCC(N)=O)NC(=O)[C@H](Cc1ccc(O)cc1)NC(=O)[C@@H](NC(=O)[C@H](CCC(N)=O)NC(=O)[C@H](Cc1c[nH]cn1)NC(=O)[C@H](C)NC(=O)[C@H](CC(C)C)NC(=O)[C@H](CCCNC(=N)N)NC(=O)[C@H](CCC(N)=O)NC(=O)[C@@H](NC(=O)[C@@H](NC(=O)[C@@H]1CSSC[C@H](NC(=O)CN)C(=O)N[C@@H](CCCNC(=N)N)C(=O)N[C@@H]([C@@H](C)O)C(=O)NCC(=O)N[C@@H]([C@@H](C)O)C(=O)N1)[C@@H](C)O)C(C)C)[C@@H](C)CC)[C@@H](C)O)C(C)C)[C@@H](C)O)C(=O)NCC(=O)N1CCC[C@H]1C(=O)N[C@@H](CCC(N)=O)C(=O)NCC(=O)N1C[C@H](O)C[C@H]1C(N)=O` [compound 118] (H-GCRTGTCTVQRLAHQIYQFTDKDKDNVAPRTNIGPQG[Hyp]-NH2; disulfide 2-7; N-terminus assumed), in data set [1], the “Max ThT signal (%)” value was 7.400%. In addition, at hAMY3 receptor, the half-maximal effective concentration (EC50) came out at 0.024 nM.
